From ChEMBL document CHEMBL1139599, “Benzothieno[3,2-b]indole derivatives as potent selective estrogen receptor modulators” (Bioorg Med Chem Lett, 2005)

Columns and labels:
Estrogen receptor = target: T1, Estrogen receptor (Homo sapiens, UniProt P03372); assay: Inhibition of [3H]17-beta-estradiol binding to human estrogen receptor alpha
T1 sequence (P03372 whole entry): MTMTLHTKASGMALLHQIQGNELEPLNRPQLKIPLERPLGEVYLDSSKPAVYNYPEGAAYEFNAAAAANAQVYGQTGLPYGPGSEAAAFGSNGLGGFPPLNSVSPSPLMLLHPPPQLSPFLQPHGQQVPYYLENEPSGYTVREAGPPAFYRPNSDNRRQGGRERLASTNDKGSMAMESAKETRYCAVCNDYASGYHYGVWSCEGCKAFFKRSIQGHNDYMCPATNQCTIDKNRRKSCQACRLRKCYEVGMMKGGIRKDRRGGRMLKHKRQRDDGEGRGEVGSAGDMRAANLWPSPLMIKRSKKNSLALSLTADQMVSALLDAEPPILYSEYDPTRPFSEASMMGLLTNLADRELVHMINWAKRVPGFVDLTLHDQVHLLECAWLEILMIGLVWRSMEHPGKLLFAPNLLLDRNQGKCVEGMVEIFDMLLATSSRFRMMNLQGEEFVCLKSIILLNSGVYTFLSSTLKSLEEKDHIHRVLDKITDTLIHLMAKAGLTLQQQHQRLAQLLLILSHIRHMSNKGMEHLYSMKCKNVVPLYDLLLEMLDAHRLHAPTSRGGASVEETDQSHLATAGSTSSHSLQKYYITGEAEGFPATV

Estrogen receptor beta = Estrogen receptor beta (Homo sapiens, UniProt Q92731); assay: Inhibition of [3H]17-beta-estradiol binding to human estrogen receptor beta
Estrogen receptor beta, sequence (Q92731 whole entry): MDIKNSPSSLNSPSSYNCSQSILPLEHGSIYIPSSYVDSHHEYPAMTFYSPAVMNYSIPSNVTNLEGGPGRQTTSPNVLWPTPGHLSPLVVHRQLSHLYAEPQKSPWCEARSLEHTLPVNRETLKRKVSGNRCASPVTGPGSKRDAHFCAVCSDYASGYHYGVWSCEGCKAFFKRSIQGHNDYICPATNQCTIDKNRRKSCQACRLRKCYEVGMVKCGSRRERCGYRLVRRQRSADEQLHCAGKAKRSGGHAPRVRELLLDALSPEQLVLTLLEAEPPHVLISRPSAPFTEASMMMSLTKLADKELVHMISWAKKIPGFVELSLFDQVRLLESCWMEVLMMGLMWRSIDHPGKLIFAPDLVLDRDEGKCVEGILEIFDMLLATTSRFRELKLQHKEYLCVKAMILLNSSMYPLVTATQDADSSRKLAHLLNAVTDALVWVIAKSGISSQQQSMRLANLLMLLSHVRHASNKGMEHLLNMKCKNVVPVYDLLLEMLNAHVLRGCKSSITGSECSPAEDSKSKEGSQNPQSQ

[1] = target: T2, Estrogen receptor (Mus musculus) (UniProt O08537+P19785)
T2 sequence (O08537 whole entry, looked up): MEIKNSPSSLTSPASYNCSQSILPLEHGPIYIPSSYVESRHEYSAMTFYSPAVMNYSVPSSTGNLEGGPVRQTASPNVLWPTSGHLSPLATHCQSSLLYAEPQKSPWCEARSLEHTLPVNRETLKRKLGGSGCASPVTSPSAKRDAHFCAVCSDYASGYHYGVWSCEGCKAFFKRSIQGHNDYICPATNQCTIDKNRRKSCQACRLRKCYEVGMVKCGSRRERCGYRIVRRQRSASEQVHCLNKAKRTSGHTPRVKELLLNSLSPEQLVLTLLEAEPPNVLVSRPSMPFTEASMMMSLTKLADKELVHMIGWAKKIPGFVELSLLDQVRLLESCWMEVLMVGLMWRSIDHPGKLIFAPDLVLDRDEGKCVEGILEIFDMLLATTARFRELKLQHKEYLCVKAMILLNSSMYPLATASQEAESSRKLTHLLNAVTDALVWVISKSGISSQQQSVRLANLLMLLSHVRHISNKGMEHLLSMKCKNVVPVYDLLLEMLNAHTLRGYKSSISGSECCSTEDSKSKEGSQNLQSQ
T2 sequence (P19785 whole entry, looked up): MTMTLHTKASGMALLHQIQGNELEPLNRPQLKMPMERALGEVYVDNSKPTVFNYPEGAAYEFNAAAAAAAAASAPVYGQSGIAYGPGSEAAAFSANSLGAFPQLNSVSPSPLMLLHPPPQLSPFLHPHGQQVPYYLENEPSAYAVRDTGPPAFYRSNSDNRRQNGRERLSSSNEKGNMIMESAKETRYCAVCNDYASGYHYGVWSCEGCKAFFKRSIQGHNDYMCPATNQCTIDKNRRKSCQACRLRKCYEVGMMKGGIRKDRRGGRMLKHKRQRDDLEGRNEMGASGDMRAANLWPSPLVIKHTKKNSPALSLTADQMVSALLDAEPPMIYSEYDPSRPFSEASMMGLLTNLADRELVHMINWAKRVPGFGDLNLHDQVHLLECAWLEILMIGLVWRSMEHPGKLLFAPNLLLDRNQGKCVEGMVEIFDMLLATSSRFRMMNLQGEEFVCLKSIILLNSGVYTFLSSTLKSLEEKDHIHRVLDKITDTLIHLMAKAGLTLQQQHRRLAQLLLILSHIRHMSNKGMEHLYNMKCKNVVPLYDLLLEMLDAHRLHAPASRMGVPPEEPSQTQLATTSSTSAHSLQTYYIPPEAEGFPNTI

[2] = target: T2, Estrogen receptor (Mus musculus); details: Uterus
Description: Uterine wet weight in ovariectomized mice after 4 weeks of subcutaneous administration at 4 umol/kg (n=5)

Row | SMILES | IC50 (Estrogen receptor) [µM] | IC50 (Estrogen receptor beta) [µM] | BMD [1] [mg/cm3] | Wet weight [2] [mg]
1 | CN(C)CCOc1ccc(Cn2c3ccc(O)cc3c3sc4cc(O)ccc4c32)cc1 | 0.018 | 0.031 | 480 | 26.2
2 | CN(C)CCOc1ccc(Cn2c3ccccc3c3sc4cc(O)ccc4c32)cc1 | 0.0514 | 0.0456 | 474 | 28.2
3 | CCN(CC)CCOc1ccc(Cn2c3ccc(O)cc3c3sc4cc(O)ccc4c32)cc1 | 0.0312 | 0.0164 | 479 | 37.7
4 | Oc1ccc2c(c1)sc1c3cc(O)ccc3n(Cc3ccc(OCCN4CCOCC4)cc3)c21 | 0.01 | 0.0214 | 470 | 26.3
5 | Oc1ccc2c(c1)sc1c3cc(O)ccc3n(Cc3ccc(OCCN4CCCC4)cc3)c21 | 0.006 | 0.0202 | 469 | 30.7
6 | Oc1ccc2c(c1)sc1c3ccccc3n(Cc3ccc(OCCN4CCCC4)cc3)c21 | 0.0272 | 0.0539 | 505 | 27.6
7 | Oc1ccc2c(c1)sc1c3ccccc3n(Cc3ccc(OCCN4CCCCC4)cc3)c21 | 0.039 | 0.035 | 436 | 34
8 | Oc1ccc2c(c1)sc1c3ccccc3n(Cc3ccc(OCCN4CCCCCC4)cc3)c21 | 0.018 | 0.0166 | 444 | 28.5
9 | Oc1ccc2c(c1)sc1c3cc(O)ccc3n(Cc3ccc(OCCN4CCCCC4)cc3)c21 | 0.00284 | 0.011 | 548 | 44.2
10 | Oc1ccc2c(c1)sc1c3ccccc3n(Cc3ccc(OCCN4CCOCC4)cc3)c21 | 0.126 | 0.215 | 455 | 27
11 | CCN(CC)CCOc1ccc(Cn2c3ccccc3c3sc4cc(O)ccc4c32)cc1 | 0.0574 | 0.025 | 448 | 34.9
12 | Oc1ccc2c(c1)sc1c3cc(O)ccc3n(Cc3ccc(OCCN4CCCCCC4)cc3)c21 | 0.00334 | 0.00726 | 534 | 44.2
